How the values were obtained:
PRMT5/MEP50 = molecular target: T1, PRMT5/MEP50 (Homo sapiens, UniProt O14744); assay: PRMT5 Biochemical Assay (PRMT5/MEP50 enzyme assay on peptide substrate, 3H-SAM Flashplate); settings: Table A-2; PRMT5/MEP50 4 nM, 3H-SAM 75 nM, peptide 40 nM; read-out: Biochemical IC50
T1 construct: Expressed full-length human Flag-PRMT5/6His-MeP50 protein complex was purified; made in house; host or cells: Spodoptera frugiperda (SF9) insect cells, baculovirus (pDEST8)

Z-138 cells = assay: Z-138 Proliferation Assay (Cell Titer Glo, 5 days); type: cell-based; settings: Homo sapiens, 120 h, Table A-2, 5 days, top concentration 20 μM
Summary of the method: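 Exponentially growing Z-138 cells (10,000 cells/ml) in RPMI 1640 with 10% FBS are exposed to nine-point 3-fold dilutions (final top concentration 20 μM, 0.2% DMSO) for 5 days at 37° C. Viability is measured as ATP by CellTiter-Glo luminescence. The 50% inhibitory concentration comes from a 4-parameter fit.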

T1 sequence (O14744 with tags, fused parts or gaps): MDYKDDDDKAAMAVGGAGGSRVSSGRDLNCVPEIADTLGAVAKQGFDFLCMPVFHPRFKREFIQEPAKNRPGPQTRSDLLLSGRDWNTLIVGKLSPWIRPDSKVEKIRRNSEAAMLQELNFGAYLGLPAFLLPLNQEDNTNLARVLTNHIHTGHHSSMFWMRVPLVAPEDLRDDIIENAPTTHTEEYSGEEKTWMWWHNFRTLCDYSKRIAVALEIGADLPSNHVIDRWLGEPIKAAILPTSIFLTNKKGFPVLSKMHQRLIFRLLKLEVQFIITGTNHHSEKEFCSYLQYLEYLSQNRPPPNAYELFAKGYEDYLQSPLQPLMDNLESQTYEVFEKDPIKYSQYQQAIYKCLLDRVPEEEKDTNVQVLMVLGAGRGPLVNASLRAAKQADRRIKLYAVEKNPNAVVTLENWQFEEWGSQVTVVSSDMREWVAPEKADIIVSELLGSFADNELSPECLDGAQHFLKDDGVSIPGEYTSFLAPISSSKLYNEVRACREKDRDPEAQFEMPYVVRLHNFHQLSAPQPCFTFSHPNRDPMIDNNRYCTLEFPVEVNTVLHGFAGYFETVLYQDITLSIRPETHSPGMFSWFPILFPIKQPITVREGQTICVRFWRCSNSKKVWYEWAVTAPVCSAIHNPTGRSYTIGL
T1 sequence (Q9BQA1 with tags, fused parts or gaps partner limits assumed): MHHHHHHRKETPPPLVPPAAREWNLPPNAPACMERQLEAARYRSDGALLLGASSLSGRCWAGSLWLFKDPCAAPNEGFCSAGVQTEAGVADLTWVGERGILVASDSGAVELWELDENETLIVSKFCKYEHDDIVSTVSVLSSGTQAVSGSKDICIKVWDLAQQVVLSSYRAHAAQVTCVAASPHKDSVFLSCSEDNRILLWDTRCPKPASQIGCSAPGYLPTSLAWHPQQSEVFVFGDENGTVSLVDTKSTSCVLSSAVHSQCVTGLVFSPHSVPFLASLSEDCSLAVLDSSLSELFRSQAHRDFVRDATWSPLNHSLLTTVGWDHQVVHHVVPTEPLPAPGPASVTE

IC50 (PRMT5/MEP50)	Compound	EC50 (Z-138 cells)
< 0.1 µM	O=C(COc1ccccc1S(=O)(=O)N1CCCC1)NCC(O)CN1CCc2ccccc2C1 (centres unmarked) [Compound A110]	0.101 to 1 µM
< 0.1 µM	O=C(COc1ccccc1S(=O)(=O)N1CCC(O)C1)NCC(O)CN1CCc2ccccc2C1 (centres unmarked) [Compound A111]	0.101 to 1 µM
0.101 to 1 µM	CNC(=O)c1ccccc1OCC(=O)NCC(O)CN1CCc2ccccc2C1 (centres unmarked) [Compound A112]	> 20 µM
0.101 to 1 µM	CN(C)C(=O)c1ccccc1OCC(=O)NCC(O)CN1CCc2ccccc2C1 (centres unmarked) [Compound A113]	10 to 50 µM
0.101 to 1 µM	CC(Oc1ccccc1S(C)(=O)=O)C(=O)NCC(O)CN1CCc2ccccc2C1 (centres unmarked) [Compound A114]	> 20 µM
1 to 10 µM	O=C(COc1ccccc1C1CCNC1)NCC(O)CN1CCc2ccccc2C1 (centres unmarked) [Compound A116]	> 20 µM
0.101 to 1 µM	O=C(COc1ccccc1C1CCCNC1)NCC(O)CN1CCc2ccccc2C1 (centres unmarked) [Compound A117]	1 to 10 µM
0.101 to 1 µM	Cn1cc2c(OCC(=O)NCC(O)CN3CCc4ccccc4C3)cccc2n1 (centres unmarked) [Compound A118]	> 20 µM
< 0.1 µM	O=C(COc1cccc2c1CNCC2)NCC(O)CN1CCc2ccccc2C1 (centres unmarked) [Compound A119]	10 to 50 µM
0.101 to 1 µM	CN1CCc2cccc(OCC(=O)NCC(O)CN3CCc4ccccc4C3)c2C1 (centres unmarked) [Compound A120]	> 20 µM
0.101 to 1 µM	CC(=O)N1CCN(S(=O)(=O)c2ccccc2OCC(=O)NCC(O)CN2CCc3ccccc3C2)CC1 (centres unmarked) [Compound A122]	> 20 µM
< 0.1 µM	CNS(=O)(=O)c1ccccc1OCC(=O)NCC(O)CN1CCc2ccccc2C1 (centres unmarked) [Compound A123]	1 to 10 µM
1 to 10 µM	O=C(COc1cccc2c1OCC(=O)N2)NCC(O)CN1CCc2ccccc2C1 (centres unmarked) [Compound A124]	> 20 µM
0.101 to 1 µM	CN(C)c1ncccc1OCC(=O)NCC(O)CN1CCc2ccccc2C1 (centres unmarked) [Compound A127]	> 20 µM
0.101 to 1 µM	O=C(COc1cccc2ncc(=O)[nH]c12)NCC(O)CN1CCc2ccccc2C1 (centres unmarked) [Compound A129]	> 20 µM
< 0.1 µM	CN1CCCC(c2ccccc2OCC(=O)NCC(O)CN2CCc3ccccc3C2)C1 (centres unmarked) [Compound A130]	1 to 10 µM
0.101 to 1 µM	CN1CCC(c2ccccc2OCC(=O)NCC(O)CN2CCc3ccccc3C2)CC1 (centres unmarked) [Compound A134]	> 20 µM
0.101 to 1 µM	O=C(COc1ccccc1-c1ncc[nH]1)NCC(O)CN1CCc2ccccc2C1 (centres unmarked) [Compound A137]	> 20 µM
0.101 to 1 µM	CN(c1cccc(OCC(=O)NCC(O)CN2CCc3ccccc3C2)c1)S(C)(=O)=O (centres unmarked) [Compound A142]	> 20 µM

From patent publication US20150344457A1, “METHODS OF INHIBITING PRMT5” (EPIZYME, INC., priority 2012, published 2015)
